For 8 compounds, IC50 results are on record in ChEMBL document CHEMBL3608278 (J Med Chem, 2015).

Experiment [1] concerns the target T1, Potassium voltage-gated channel subfamily A member 3 (Homo sapiens, UniProt P22001). On the set-up: species or system Blood.
Experiment [2] deals with T1, Potassium voltage-gated channel subfamily A member 3. Description: cell-based. Also noted: species or system Blood.
Experiment [3] shares this target. Format: cell-based, CHO-K1.

T1 sequence (P22001 whole entry): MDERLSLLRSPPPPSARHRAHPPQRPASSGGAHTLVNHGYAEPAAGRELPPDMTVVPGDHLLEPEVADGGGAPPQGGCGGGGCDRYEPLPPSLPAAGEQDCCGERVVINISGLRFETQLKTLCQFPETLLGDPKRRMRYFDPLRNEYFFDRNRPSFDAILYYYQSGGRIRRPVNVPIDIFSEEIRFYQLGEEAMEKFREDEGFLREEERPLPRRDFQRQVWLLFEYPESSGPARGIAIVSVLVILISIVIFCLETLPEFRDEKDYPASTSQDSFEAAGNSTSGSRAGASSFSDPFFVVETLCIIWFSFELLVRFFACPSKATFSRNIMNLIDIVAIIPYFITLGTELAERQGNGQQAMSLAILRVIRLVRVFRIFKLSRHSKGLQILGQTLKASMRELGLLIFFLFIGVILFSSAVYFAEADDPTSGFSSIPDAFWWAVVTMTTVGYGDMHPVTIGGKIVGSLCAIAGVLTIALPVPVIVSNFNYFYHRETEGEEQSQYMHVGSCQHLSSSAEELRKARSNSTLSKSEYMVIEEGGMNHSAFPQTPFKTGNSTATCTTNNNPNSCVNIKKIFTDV

`CC[C@H](C)[C@@H]1NC(=O)[C@@H](NC(=O)[C@H](CO)NC(=O)[C@@H](N)CCCNC(=N)N)CSSC[C@@H](C(=O)O)NC(=O)[C@H]([C@@H](C)O)NC(=O)CNC(=O)[C@@H]2CSSC[C@@H]3NC(=O)[C@H](CCC(N)=O)NC(=O)[C@H](Cc4ccccc4)NC(=O)[C@H](C)NC(=O)[C@H]([C@@H](C)O)NC(=O)[C@H](CSSC[C@H](NC(=O)[C@H](Cc4ccccc4)NC(=O)[C@H](CO)NC(=O)[C@H](CC(C)C)NC(=O)[C@H](CCCNC(=N)N)NC(=O)[C@H](Cc4ccc(O)cc4)NC(=O)[C@H](CCCCN)NC(=O)[C@H](CCSC)NC(=O)[C@H](CO)NC(=O)[C@H](Cc4cnc[nH]4)NC(=O)[C@H](CCCCN)NC3=O)C(=O)N[C@@H](CCCNC(=N)N)C(=O)N[C@@H](CCCCN)C(=O)N[C@@H]([C@@H](C)O)C(=O)N2)NC(=O)[C@H](CCCNC(=N)N)NC(=O)[C@H](CO)NC(=O)[C@H](CCCCN)NC(=O)[C@H](CCCNC(=N)N)NC(=O)[C@H]([C@@H](C)CC)NC(=O)[C@H]([C@@H](C)O)NC(=O)[C@H](CC(=O)O)NC1=O`: the values for the IC50 in experiment [1], in experiment [2] and in experiment [3] were 1050 pM, 253 pM and 447 pM, respectively.
For `CC[C@H](C)[C@@H]1NC(=O)[C@@H](NC(=O)[C@H](CO)NC(=O)[C@@H](N)CCCNC(=N)N)CSSC[C@@H](C(=O)O)NC(=O)[C@H]([C@@H](C)O)NC(=O)CNC(=O)[C@@H]2CSSC[C@@H]3NC(=O)[C@H](CCC(N)=O)NC(=O)[C@H](Cc4ccccc4)NC(=O)[C@H](C)NC(=O)[C@H]([C@@H](C)O)NC(=O)[C@H](CSSC[C@H](NC(=O)[C@H](Cc4ccccc4)NC(=O)[C@H](CO)NC(=O)[C@H](CC(C)C)NC(=O)[C@H](CCCNC(=N)N)NC(=O)[C@H](Cc4ccc(O)cc4)NC(=O)[C@H](CCCCN)NC(=O)[C@H](CCSC)NC(=O)[C@H](CO)NC(=O)[C@H](Cc4cnc[nH]4)NC(=O)[C@H](CCCCN)NC3=O)C(=O)N[C@@H](CCCNC(=N)N)C(=O)N[C@@H](CCCCN)C(=O)N[C@@H]([C@@H](C)O)C(=O)N2)NC(=O)[C@H](CCCNC(=N)N)NC(=O)[C@H](CCCNC(=N)N)NC(=O)[C@H](CCCCN)NC(=O)[C@@H]2CCCN2C(=O)[C@H]([C@@H](C)CC)NC(=O)[C@H]([C@@H](C)O)NC(=O)[C@H](CC(=O)O)NC1=O` the same measures were 129 pM, 72 pM and 73 pM.
On to `CC[C@H](C)[C@@H]1NC(=O)[C@@H](NC(=O)[C@H](CO)NC(=O)[C@@H](N)CCCNC(=N)N)CSSC[C@@H](C(=O)O)NC(=O)[C@H]([C@@H](C)O)NC(=O)CNC(=O)[C@@H]2CSSC[C@@H]3NC(=O)[C@H](CCC(N)=O)NC(=O)[C@H](Cc4ccccc4)NC(=O)[C@H](C)NC(=O)[C@H](CCCNC(=N)N)NC(=O)[C@H](CSSC[C@H](NC(=O)[C@H](Cc4ccccc4)NC(=O)[C@H](CO)NC(=O)[C@H](CC(C)C)NC(=O)[C@H](CCCNC(=N)N)NC(=O)[C@H](Cc4ccc(O)cc4)NC(=O)[C@H](CCCCN)NC(=O)[C@H](CCSC)NC(=O)[C@H](CO)NC(=O)[C@H](Cc4cnc[nH]4)NC(=O)[C@H](CCCCN)NC3=O)C(=O)N[C@@H](CCCNC(=N)N)C(=O)N[C@@H](CCCCN)C(=O)N[C@@H]([C@@H](C)O)C(=O)N2)NC(=O)[C@H](CCCNC(=N)N)NC(=O)[C@H](CO)NC(=O)[C@H](CCCCN)NC(=O)[C@@H]2CCCN2C(=O)[C@H]([C@@H](C)CC)NC(=O)[C@H]([C@@H](C)O)NC(=O)[C@H](CC(=O)O)NC1=O`, for which the IC50 in experiment [1] came to 635 pM; in experiment [2], 398 pM; in experiment [3], 152 pM.
For `CC[C@H](C)[C@@H]1NC(=O)[C@@H](NC(=O)[C@H](CO)NC(=O)[C@@H](N)CCCNC(=N)N)CSSC[C@@H](C(=O)O)NC(=O)[C@H]([C@@H](C)O)NC(=O)CNC(=O)[C@@H]2CSSC[C@@H]3NC(=O)[C@H](CCCNC(=N)N)NC(=O)[C@H](Cc4ccccc4)NC(=O)[C@H](C)NC(=O)[C@H]([C@@H](C)O)NC(=O)[C@H](CSSC[C@H](NC(=O)[C@H](Cc4ccccc4)NC(=O)[C@H](CO)NC(=O)[C@H](CC(C)C)NC(=O)[C@H](CCCNC(=N)N)NC(=O)[C@H](Cc4ccc(O)cc4)NC(=O)[C@H](CCCCN)NC(=O)[C@H](CCSC)NC(=O)[C@H](CO)NC(=O)[C@H](Cc4cnc[nH]4)NC(=O)[C@H](CCCCN)NC3=O)C(=O)N[C@@H](CCCNC(=N)N)C(=O)N[C@@H](CCCCN)C(=O)N[C@@H]([C@@H](C)O)C(=O)N2)NC(=O)[C@H](CCCNC(=N)N)NC(=O)[C@H](CO)NC(=O)[C@H](CCCCN)NC(=O)[C@@H]2CCCN2C(=O)[C@H]([C@@H](C)CC)NC(=O)[C@H]([C@@H](C)O)NC(=O)[C@H](CC(=O)O)NC1=O` the same measures were 492 pM, 372 pM and 166 pM.
For `CC[C@H](C)[C@@H]1NC(=O)[C@@H](NC(=O)[C@H](CO)NC(=O)[C@@H](N)CCCNC(=N)N)CSSC[C@@H](C(=O)O)NC(=O)[C@H]([C@@H](C)O)NC(=O)CNC(=O)[C@@H]2CSSC[C@@H]3NC(=O)[C@H](CCC(N)=O)NC(=O)[C@H](Cc4ccccc4)NC(=O)[C@H](C)NC(=O)[C@H]([C@@H](C)O)NC(=O)[C@H](CSSC[C@H](NC(=O)[C@H](Cc4ccccc4)NC(=O)[C@H](CO)NC(=O)[C@H](CC(C)C)NC(=O)[C@H](CCCNC(=N)N)NC(=O)[C@H](Cc4ccc(O)cc4)NC(=O)[C@H](CCCCN)NC(=O)[C@H](CCSC)NC(=O)[C@H](CO)NC(=O)[C@H](Cc4cnc[nH]4)NC(=O)[C@H](CCCNC(=N)N)NC3=O)C(=O)N[C@@H](CCCNC(=N)N)C(=O)N[C@@H](CCCCN)C(=O)N[C@@H]([C@@H](C)O)C(=O)N2)NC(=O)[C@H](CCCNC(=N)N)NC(=O)[C@H](CO)NC(=O)[C@H](CCCCN)NC(=O)[C@@H]2CCCN2C(=O)[C@H]([C@@H](C)CC)NC(=O)[C@H]([C@@H](C)O)NC(=O)[C@H](CC(=O)O)NC1=O` the same measures were 56 pM, 38 pM and 104 pM.
`CC[C@H](C)[C@@H]1NC(=O)[C@@H](NC(=O)[C@H](CO)NC(=O)[C@@H](N)CCCNC(=N)N)CSSC[C@@H](C(=O)O)NC(=O)[C@H]([C@@H](C)O)NC(=O)CNC(=O)[C@@H]2CSSC[C@@H]3NC(=O)[C@H](CCC(N)=O)NC(=O)[C@H](Cc4ccccc4)NC(=O)[C@H](C)NC(=O)[C@H]([C@@H](C)O)NC(=O)[C@H](CSSC[C@H](NC(=O)[C@H](Cc4ccccc4)NC(=O)[C@H](CO)NC(=O)[C@H](CC(C)C)NC(=O)[C@H](CCCNC(=N)N)NC(=O)[C@H](Cc4ccc(O)cc4)NC(=O)[C@H](CCCCN)NC(=O)[C@H](CCSC)NC(=O)[C@H](CO)NC(=O)[C@H](CCCNC(=N)N)NC(=O)[C@H](CCCCN)NC3=O)C(=O)N[C@@H](CCCNC(=N)N)C(=O)N[C@@H](CCCCN)C(=O)N[C@@H]([C@@H](C)O)C(=O)N2)NC(=O)[C@H](CCCNC(=N)N)NC(=O)[C@H](CO)NC(=O)[C@H](CCCCN)NC(=O)[C@@H]2CCCN2C(=O)[C@H]([C@@H](C)CC)NC(=O)[C@H]([C@@H](C)O)NC(=O)[C@H](CC(=O)O)NC1=O`: the IC50 in experiment [1] turned out to be 282 pM; in experiment [2] it was 114 pM; in experiment [3], 95 pM.
For `CC[C@H](C)[C@@H]1NC(=O)[C@@H](NC(=O)[C@H](CO)NC(=O)[C@@H](N)CCCNC(=N)N)CSSC[C@@H](C(=O)O)NC(=O)[C@H]([C@@H](C)O)NC(=O)CNC(=O)[C@@H]2CSSC[C@@H]3NC(=O)[C@H](CCC(N)=O)NC(=O)[C@H](Cc4ccccc4)NC(=O)[C@H](C)NC(=O)[C@H]([C@@H](C)O)NC(=O)[C@H](CSSC[C@H](NC(=O)[C@H](Cc4ccccc4)NC(=O)[C@H](CO)NC(=O)[C@H](CC(C)C)NC(=O)[C@H](CCCNC(=N)N)NC(=O)[C@H](Cc4ccc(O)cc4)NC(=O)[C@H](CCCCN)NC(=O)[C@H](CCSC)NC(=O)[C@H](CCCNC(=N)N)NC(=O)[C@H](Cc4cnc[nH]4)NC(=O)[C@H](CCCCN)NC3=O)C(=O)N[C@@H](CCCNC(=N)N)C(=O)N[C@@H](CCCCN)C(=O)N[C@@H]([C@@H](C)O)C(=O)N2)NC(=O)[C@H](CCCNC(=N)N)NC(=O)[C@H](CO)NC(=O)[C@H](CCCCN)NC(=O)[C@@H]2CCCN2C(=O)[C@H]([C@@H](C)CC)NC(=O)[C@H]([C@@H](C)O)NC(=O)[C@H](CC(=O)O)NC1=O` the same measures were 40300 pM, 25300 pM and more than 3330 pM.
For `CC[C@H](C)[C@@H]1NC(=O)[C@@H](NC(=O)[C@H](CO)NC(=O)[C@@H](N)CCCNC(=N)N)CSSC[C@@H](C(=O)O)NC(=O)[C@H]([C@@H](C)O)NC(=O)CNC(=O)[C@@H]2CSSC[C@@H]3NC(=O)[C@H](CCC(N)=O)NC(=O)[C@H](Cc4ccccc4)NC(=O)[C@H](C)NC(=O)[C@H]([C@@H](C)O)NC(=O)[C@H](CSSC[C@H](NC(=O)[C@H](Cc4ccccc4)NC(=O)[C@H](CO)NC(=O)[C@H](CC(C)C)NC(=O)[C@H](CCCNC(=N)N)NC(=O)[C@H](Cc4ccc(O)cc4)NC(=O)[C@H](CCCCN)NC(=O)[C@H](CCCNC(=N)N)NC(=O)[C@H](CO)NC(=O)[C@H](Cc4cnc[nH]4)NC(=O)[C@H](CCCCN)NC3=O)C(=O)N[C@@H](CCCNC(=N)N)C(=O)N[C@@H](CCCCN)C(=O)N[C@@H]([C@@H](C)O)C(=O)N2)NC(=O)[C@H](CCCNC(=N)N)NC(=O)[C@H](CO)NC(=O)[C@H](CCCCN)NC(=O)[C@@H]2CCCN2C(=O)[C@H]([C@@H](C)CC)NC(=O)[C@H]([C@@H](C)O)NC(=O)[C@H](CC(=O)O)NC1=O` the same measures were 3080 pM, 1490 pM and 259 pM.

Broadly, the IC50 is the concentration needed to halve the response being measured. A high value points to weaker potency in that assay.
